Data reported in ChEMBL document CHEMBL1151410, “Plant anticancer agents. XXII. Isolation of a phorbol diester and its delta 5,6-7 beta-hydroperoxide derivative from Ostodes paniculata” (1983).
Converted amounts (≈) assume the structure as drawn.

System: P388
Test: Cytotoxicity against mouse P388 cells
Assay type: functional
Details: read-out: ED50 (the source's name)

`CCCCCCCC/C=C/C(=O)O[C@@H]1[C@@H](C)[C@@]2(O)[C@H]([C@@H]3C(C)(C)[C@]13OC(C)=O)[C@@H](OO)C(CO)=C[C@]1(O)C(=O)C(C)=C[C@@H]21` [OSTODIN] showed an EC50 of 0.055 µg/mL (≈ 0.0909 µM).
